Results from ChEMBL document CHEMBL1914283, “Synthesis and evaluation of pyridazinone-phenethylamine derivatives as selective and orally bioavailable histamine H3 receptor antagonists with robust wake-promoting activity” (Bioorg Med Chem Lett, 2011).
Calls of active or inactive are those of the source. No cut-off for these calls is given here.

What was measured:
Histamine H3 receptor [1] = target: T1, Histamine H3 receptor (Homo sapiens, UniProt Q9Y5N1); assay: Displacement of [3H]NAMH from human H3R expressed in CHO cells; assay type: cell-based
Target sequence in this assay (Q9Y5N1 whole entry): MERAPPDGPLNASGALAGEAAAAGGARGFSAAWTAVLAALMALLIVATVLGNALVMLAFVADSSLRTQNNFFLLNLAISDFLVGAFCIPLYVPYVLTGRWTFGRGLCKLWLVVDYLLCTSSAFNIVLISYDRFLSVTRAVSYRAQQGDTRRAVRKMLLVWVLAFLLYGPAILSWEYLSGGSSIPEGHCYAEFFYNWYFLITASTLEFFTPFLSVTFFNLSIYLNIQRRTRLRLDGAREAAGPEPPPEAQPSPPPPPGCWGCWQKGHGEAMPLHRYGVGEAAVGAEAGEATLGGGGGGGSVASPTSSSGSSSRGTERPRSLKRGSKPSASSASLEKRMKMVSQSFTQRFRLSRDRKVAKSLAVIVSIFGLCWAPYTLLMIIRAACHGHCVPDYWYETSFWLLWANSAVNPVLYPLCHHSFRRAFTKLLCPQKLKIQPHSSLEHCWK

Histamine H3 receptor [2] = target: Histamine H3 receptor (Rattus norvegicus, UniProt Q9QYN8); assay: Displacement of [3H]NAMH from rat H3R expressed in CHO cells; assay type: cell-based
Chain of Histamine H3 receptor (Rattus norvegicus, UniProt Q9QYN8) (Q9QYN8 whole entry): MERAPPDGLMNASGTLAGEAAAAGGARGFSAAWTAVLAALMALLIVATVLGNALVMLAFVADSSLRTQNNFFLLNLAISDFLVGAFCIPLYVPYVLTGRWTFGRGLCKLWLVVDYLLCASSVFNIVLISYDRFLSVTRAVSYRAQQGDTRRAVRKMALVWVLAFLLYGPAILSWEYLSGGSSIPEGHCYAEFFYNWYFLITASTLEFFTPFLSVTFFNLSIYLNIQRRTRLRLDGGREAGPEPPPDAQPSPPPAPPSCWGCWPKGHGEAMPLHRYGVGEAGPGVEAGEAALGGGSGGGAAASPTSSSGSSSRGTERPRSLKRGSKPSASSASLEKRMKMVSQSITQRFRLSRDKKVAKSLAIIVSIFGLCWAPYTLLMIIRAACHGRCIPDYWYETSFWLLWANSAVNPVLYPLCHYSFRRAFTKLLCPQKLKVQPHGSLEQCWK

[3] = Metabolic stability in human liver microsomes assessed as half life; assay type: ADME, Microsome
Histamine H3 receptor [4] = target: T1, Histamine H3 receptor; assay: Antagonist activity at human H3R expressed in CHO cells assessed as inhibition of R-alpha-methylhistamine-induced [35S]GTPgammaS binding
Target sequence in this assay (Q9Y5N1 whole entry, looked up): as the sequence (Q9Y5N1 whole entry) above

Rattus norvegicus [5] = assay: Inhibition of R-alpha-methylhistamine-induced water intake in ip dosed rat dipsogenia model; assay type: functional
Cytochrome P450 1A2 = target: T2, Cytochrome P450 1A2 (Homo sapiens, UniProt P05177); assay: Inhibition of CYP1A2; assay type: ADME
T2 sequence (P05177 whole entry): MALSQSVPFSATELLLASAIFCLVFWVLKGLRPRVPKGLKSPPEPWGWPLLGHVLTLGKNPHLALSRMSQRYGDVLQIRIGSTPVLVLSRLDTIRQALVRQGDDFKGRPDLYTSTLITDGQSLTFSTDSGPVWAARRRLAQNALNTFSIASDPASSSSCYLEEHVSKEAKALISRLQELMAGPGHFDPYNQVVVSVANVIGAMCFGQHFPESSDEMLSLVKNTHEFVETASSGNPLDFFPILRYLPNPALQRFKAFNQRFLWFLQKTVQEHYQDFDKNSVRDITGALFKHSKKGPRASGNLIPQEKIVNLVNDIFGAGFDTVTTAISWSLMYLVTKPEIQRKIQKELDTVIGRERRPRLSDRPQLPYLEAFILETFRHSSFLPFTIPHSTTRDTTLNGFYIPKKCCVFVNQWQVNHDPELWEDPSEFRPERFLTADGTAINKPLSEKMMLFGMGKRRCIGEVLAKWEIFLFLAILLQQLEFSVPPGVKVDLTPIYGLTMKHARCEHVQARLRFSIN

Rattus norvegicus [6] = assay: Wake promoting activity in Sprague-Dawley rat EEG/EMG model assessed as increase in cumulative wake time at 30 mg/kg, ip up to 7.5 hrs; assay type: functional, organism-based; parameters: dose 30 mg/kg
Cytochrome P450 2C19 = Cytochrome P450 2C19 (Homo sapiens, UniProt P33261); assay: Inhibition of CYP2C19; assay type: ADME
Chain of Cytochrome P450 2C19 (P33261 whole entry): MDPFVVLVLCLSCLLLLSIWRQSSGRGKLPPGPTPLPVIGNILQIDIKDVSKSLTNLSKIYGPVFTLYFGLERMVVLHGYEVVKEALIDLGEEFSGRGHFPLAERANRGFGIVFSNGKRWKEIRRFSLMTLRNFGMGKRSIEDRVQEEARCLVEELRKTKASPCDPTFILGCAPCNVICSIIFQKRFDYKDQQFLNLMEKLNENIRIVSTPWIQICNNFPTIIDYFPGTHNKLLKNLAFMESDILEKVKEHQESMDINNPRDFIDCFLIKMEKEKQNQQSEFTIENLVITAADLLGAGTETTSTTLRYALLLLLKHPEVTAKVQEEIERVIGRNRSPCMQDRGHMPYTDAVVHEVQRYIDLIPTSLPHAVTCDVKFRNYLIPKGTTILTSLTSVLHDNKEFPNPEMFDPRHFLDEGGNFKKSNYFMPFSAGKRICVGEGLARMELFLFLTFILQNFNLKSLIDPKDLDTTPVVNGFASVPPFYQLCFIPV

Rattus norvegicus [7] = assay: Toxicity in Sprague-Dawley rat EEG/EMG model assessed as EEG abnormality at 3 to 30 mg/kg, ip; assay type: organism-based; parameters: dose 3-30 mg/kg, route intraperitoneal; details: in vivo
[8] = Aqueous solubility of the compound at pH 2; assay type: physicochemical; details: buffer
[9] = Aqueous solubility of the compound at pH 7.4; assay type: physicochemical; details: buffer
[10] = Metabolic stability in dog liver microsomes assessed as half life; assay type: ADME, Canis lupus familiaris, Microsome
[11] = target: Histamine H1 receptor (Homo sapiens) (UniProt P35367); assay: Inhibition of human H1R at 10 uM
Chain of Histamine H1 receptor (Homo sapiens) (P35367 whole entry): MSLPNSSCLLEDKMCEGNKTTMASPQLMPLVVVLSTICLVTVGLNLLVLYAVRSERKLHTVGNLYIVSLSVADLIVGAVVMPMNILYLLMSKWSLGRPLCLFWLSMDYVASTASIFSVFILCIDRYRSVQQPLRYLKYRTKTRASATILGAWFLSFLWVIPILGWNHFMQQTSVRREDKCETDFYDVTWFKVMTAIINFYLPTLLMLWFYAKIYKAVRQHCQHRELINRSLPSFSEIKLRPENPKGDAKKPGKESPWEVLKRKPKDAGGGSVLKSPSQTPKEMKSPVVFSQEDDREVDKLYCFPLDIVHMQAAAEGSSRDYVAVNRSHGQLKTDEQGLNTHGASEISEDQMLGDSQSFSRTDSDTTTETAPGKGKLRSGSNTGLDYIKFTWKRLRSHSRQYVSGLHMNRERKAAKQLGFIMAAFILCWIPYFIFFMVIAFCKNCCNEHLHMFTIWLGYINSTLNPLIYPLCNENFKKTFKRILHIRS

Cytochrome P450 2C9 = Cytochrome P450 2C9 (Homo sapiens, UniProt P11712); assay: Inhibition of CYP2C9; assay type: ADME
Chain of Cytochrome P450 2C9 (P11712 whole entry): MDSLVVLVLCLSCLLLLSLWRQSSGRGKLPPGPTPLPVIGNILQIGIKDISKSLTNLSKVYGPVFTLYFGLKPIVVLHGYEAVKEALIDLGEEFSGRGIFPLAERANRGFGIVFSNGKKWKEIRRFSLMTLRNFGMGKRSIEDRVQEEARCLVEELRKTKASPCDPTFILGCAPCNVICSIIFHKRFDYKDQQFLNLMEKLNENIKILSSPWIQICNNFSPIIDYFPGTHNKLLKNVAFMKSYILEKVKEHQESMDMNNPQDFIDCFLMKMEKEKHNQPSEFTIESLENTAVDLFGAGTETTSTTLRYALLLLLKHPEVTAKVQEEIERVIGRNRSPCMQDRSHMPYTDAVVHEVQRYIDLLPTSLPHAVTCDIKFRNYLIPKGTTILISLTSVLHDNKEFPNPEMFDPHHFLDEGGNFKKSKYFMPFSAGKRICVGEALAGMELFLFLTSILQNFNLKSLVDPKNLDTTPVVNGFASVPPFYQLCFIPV

Histamine H3 receptor [12] = target: T1, Histamine H3 receptor; assay: Inverse agonist activity at human H3R expressed in CHO cells assessed as inhibition of R-alpha-methylhistamine-induced [35S]GTPgammaS binding; assay type: functional, cell-based
Target sequence in this assay (Q9Y5N1 whole entry): as the sequence (Q9Y5N1 whole entry) above

[13] = Ratio of drug level from brain to plasma of rat at 10 mg/kg, ip after 1 hr; assay type: ADME, organism-based; parameters: dose 10 mg/kg, route intraperitoneal; details: read-out: BPR
[14] = AUC (0 to infinity) in rat at 1 mg/kg, iv; assay type: ADME, organism-based; parameters: time infinity, dose 1 mg/kg, route intravenous; details: plasma
[15] = Volume of distribution in rat at 1 mg/kg, iv; assay type: ADME, organism-based; parameters: dose 1 mg/kg, route intravenous; details: in vivo
[16] = Half life in rat at 1 mg/kg, iv; assay type: ADME, organism-based; parameters: dose 1 mg/kg, route intravenous; details: in vivo
[17] = Metabolic stability in mouse liver microsomes assessed as half life; assay type: ADME, Microsome
[18] = AUC (0 to infinity) in rat at 5 mg/kg, po; assay type: ADME, organism-based; parameters: time infinity, dose 5 mg/kg, route oral; details: plasma
Cytochrome P450 2D6 = Cytochrome P450 2D6 (Homo sapiens, UniProt P10635); assay: Inhibition of CYP2D6; assay type: ADME
Chain of Cytochrome P450 2D6 (P10635 whole entry): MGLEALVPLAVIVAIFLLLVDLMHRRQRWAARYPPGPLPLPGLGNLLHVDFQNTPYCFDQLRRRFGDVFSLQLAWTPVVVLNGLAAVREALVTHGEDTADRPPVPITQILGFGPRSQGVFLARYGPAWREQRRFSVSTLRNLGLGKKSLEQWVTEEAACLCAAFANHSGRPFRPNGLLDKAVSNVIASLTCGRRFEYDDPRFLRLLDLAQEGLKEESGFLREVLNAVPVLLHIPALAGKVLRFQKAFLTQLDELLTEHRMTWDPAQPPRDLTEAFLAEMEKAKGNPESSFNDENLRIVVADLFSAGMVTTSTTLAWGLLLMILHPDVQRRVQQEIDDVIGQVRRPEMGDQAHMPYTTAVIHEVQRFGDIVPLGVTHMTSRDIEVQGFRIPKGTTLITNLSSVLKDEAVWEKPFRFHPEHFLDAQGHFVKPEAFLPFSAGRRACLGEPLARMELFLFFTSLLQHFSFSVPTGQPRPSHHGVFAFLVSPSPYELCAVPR

[19] = Cmax in rat at 5 mg/kg, po; assay type: ADME, organism-based; parameters: dose 5 mg/kg, route oral; details: in vivo
Rattus norvegicus [20] = assay: Wake promoting activity in Sprague-Dawley rat EEG/EMG model assessed as cumulative wake time at 10 mg/kg, ip; assay type: functional; details: route intraperitoneal
Histamine H3 receptor [21] = target: T1, Histamine H3 receptor; assay: Antagonist activity at human H3R expressed in CHO cells assessed as inhibition of R-alpha-methylhistamine-induced [35S]GTPgammaS binding; assay type: functional, cell-based
Target sequence in this assay (Q9Y5N1 whole entry): as the sequence (Q9Y5N1 whole entry) above

Cytochrome P450 3A4 = Cytochrome P450 3A4 (Homo sapiens, UniProt P08684); assay: Inhibition of CYP3A4; assay type: ADME
Chain of Cytochrome P450 3A4 (P08684 whole entry): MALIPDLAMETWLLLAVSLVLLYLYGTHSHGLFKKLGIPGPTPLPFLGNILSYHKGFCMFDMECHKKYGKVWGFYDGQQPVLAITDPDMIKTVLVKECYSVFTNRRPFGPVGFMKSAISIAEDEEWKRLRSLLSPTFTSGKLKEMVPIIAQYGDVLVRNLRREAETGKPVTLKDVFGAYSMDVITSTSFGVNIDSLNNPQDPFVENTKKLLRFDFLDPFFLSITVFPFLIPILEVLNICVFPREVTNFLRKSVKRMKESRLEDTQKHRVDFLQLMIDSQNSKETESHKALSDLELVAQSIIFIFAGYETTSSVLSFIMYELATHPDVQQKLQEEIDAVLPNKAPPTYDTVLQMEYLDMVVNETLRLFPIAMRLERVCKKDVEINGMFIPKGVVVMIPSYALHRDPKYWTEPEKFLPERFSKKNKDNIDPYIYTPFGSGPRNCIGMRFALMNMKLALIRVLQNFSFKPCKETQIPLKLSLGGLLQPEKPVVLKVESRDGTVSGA

[22] = target: Histamine H2 receptor (Homo sapiens) (UniProt P25021); assay: Inhibition of human H2R at 10 uM
Chain of Histamine H2 receptor (Homo sapiens) (P25021 whole entry): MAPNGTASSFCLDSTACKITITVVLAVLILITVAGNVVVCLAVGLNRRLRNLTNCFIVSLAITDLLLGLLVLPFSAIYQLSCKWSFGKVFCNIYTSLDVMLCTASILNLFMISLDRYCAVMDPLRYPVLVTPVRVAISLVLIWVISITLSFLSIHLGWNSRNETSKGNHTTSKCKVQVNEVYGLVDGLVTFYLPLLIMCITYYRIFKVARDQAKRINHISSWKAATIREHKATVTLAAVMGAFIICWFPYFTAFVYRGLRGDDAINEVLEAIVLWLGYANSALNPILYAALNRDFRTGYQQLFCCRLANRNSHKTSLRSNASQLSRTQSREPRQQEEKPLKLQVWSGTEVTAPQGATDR

[23] = Clearance in rat at 1 mg/kg, iv; assay type: ADME, organism-based; parameters: dose 1 mg/kg, route intravenous; details: in vivo
[24] = Oral bioavailability in rat at 5 mg/kg; assay type: ADME, organism-based; details: in vivo
Rattus norvegicus [25] = assay: Wake promoting activity in Sprague-Dawley rat EEG/EMG model assessed as sleep rebound at 3 to 30 mg/kg, ip up to 22 hrs; assay type: functional, organism-based
[26] = target: Histamine H4 receptor (Homo sapiens) (UniProt Q9H3N8); assay: Inhibition of human H4R at 10 uM
Chain of Histamine H4 receptor (Homo sapiens) (Q9H3N8 whole entry): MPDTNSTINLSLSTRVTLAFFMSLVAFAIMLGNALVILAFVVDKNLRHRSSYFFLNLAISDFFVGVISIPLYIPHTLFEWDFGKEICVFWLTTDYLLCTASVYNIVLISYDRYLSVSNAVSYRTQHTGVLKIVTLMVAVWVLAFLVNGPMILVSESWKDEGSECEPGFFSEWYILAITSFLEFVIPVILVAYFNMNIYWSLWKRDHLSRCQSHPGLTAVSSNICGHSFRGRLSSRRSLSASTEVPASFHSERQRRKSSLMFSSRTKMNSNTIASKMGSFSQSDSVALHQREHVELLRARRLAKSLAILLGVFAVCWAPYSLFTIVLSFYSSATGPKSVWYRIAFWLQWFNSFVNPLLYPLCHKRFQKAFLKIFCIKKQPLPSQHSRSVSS

[27] = Metabolic stability in rat liver microsomes assessed as half life; assay type: ADME, Microsome
Rattus norvegicus [28] = assay: Wake promoting activity in Sprague-Dawley rat EEG/EMG model assessed as increase in cumulative wake time at 30 mg/kg, ip up to 4 hrs; assay type: functional; details: route intraperitoneal

C[C@@H]1CCCN1CCc1ccc(-c2ccc(=O)n(-c3ccccc3)n2)cc1
Ki (Histamine H3 receptor [1]): 0.034 µM
Ki (Histamine H3 receptor [2]): 0.042 µM

C[C@@H]1CCCN1CCc1ccc(-c2ccc(=O)n(-c3ccc(Cl)cc3)n2)cc1
Ki (Histamine H3 receptor [1]): 0.008 µM
Ki (Histamine H3 receptor [2]): 0.026 µM

Cn1nc(-c2ccc(CCN3CCCC3)cc2)ccc1=O
Ki (Histamine H3 receptor [1]): 0.083 µM
Ki (Histamine H3 receptor [2]): 0.135 µM

C[C@@H]1CCCN1CCc1ccc(-c2ccc(=O)n(-c3ccc(F)cc3)n2)cc1
half-life [3]: > 40 min
Activity (Histamine H3 receptor [4]): Active
ED50 (Rattus norvegicus [5]): 0.02 mg/kg
inhibition (Rattus norvegicus [5]): Dose-dependent effect
IC50 (Cytochrome P450 1A2): > 30 µM
Activity (Rattus norvegicus [6]): Active
IC50 (Cytochrome P450 2C19): > 30 µM
Activity (Rattus norvegicus [7]): Non-toxic
solubility [8]: > 125 µg/mL
solubility [9]: > 125 µg/mL
half-life [10]: > 40 min
inhibition [11]: < 30%
Ki (Histamine H3 receptor [1]): 0.013 µM
IC50 (Cytochrome P450 2C9): > 30 µM
Ki (Histamine H3 receptor [2]): 0.048 µM
EC50 (Histamine H3 receptor [12]): 0.0021 µM
Kp at 1 h [13]: 11
AUC(0-inf) [14]: 1300 ng·h/mL
Vd [15]: 4.8 L/kg
half-life [16]: 138 min
half-life [17]: > 40 min
AUC(0-inf) [18]: 1730 ng·h/mL
IC50 (Cytochrome P450 2D6): > 30 µM
Cmax [19]: 255 ng/mL
Time (Rattus norvegicus [20]): 207 min
Activity (Histamine H3 receptor [21]): Active
IC50 (Cytochrome P450 3A4): > 30 µM
inhibition [22]: < 30%
clearance [23]: 21 mL/min/kg
bioavailability [24]: 27%
Activity (Rattus norvegicus [25]): inactive
inhibition [26]: < 30%
half-life [27]: > 40 min
Activity (Rattus norvegicus [28]): 94%
